# Activity calls are given as the source filed them. No cut-off for these calls is given here.
# Columns and labels:
# Format in all cases: functional
# Staphylococcus aureus [1] = assay: Antibacterial activity against Staphylococcus aureus at 25 ug/ml after 24 hrs by agar well diffusion method; details: read-out: DIZ
# Staphylococcus aureus [2] = assay: Antibacterial activity against Staphylococcus aureus at 50 ug/ml after 24 hrs by agar well diffusion method; details: read-out: DIZ
# Staphylococcus aureus [3] = assay: Antibacterial activity against Staphylococcus aureus at 75 ug/ml after 24 hrs by agar well diffusion method; details: read-out: DIZ
# Staphylococcus aureus [4] = assay: Antibacterial activity against Staphylococcus aureus at 100 ug/ml after 24 hrs by agar well diffusion method; details: read-out: DIZ
# Bacillus subtilis [5] = assay: Antibacterial activity against Bacillus subtilis at 25 ug/ml after 24 hrs by agar well diffusion method; details: read-out: DIZ
# Bacillus subtilis [6] = assay: Antibacterial activity against Bacillus subtilis at 50 ug/ml after 24 hrs by agar well diffusion method; details: read-out: DIZ
# Bacillus subtilis [7] = assay: Antibacterial activity against Bacillus subtilis at 75 ug/ml after 24 hrs by agar well diffusion method; details: read-out: DIZ
# Bacillus subtilis [8] = assay: Antibacterial activity against Bacillus subtilis at 100 ug/ml after 24 hrs by agar well diffusion method; details: read-out: DIZ
# Escherichia coli [9] = assay: Antibacterial activity against Escherichia coli at 25 ug/ml after 24 hrs by agar well diffusion method; details: read-out: DIZ
# Escherichia coli [10] = assay: Antibacterial activity against Escherichia coli at 50 ug/ml after 24 hrs by agar well diffusion method; details: read-out: DIZ
# Escherichia coli [11] = assay: Antibacterial activity against Escherichia coli at 75 ug/ml after 24 hrs by agar well diffusion method; details: read-out: DIZ
# Escherichia coli [12] = assay: Antibacterial activity against Escherichia coli at 100 ug/ml after 24 hrs by agar well diffusion method; details: read-out: DIZ
# Klebsiella pneumoniae [13] = assay: Antibacterial activity against Klebsiella pneumoniae at 25 ug/ml after 24 hrs by agar well diffusion method; details: read-out: DIZ
# Klebsiella pneumoniae [14] = assay: Antibacterial activity against Klebsiella pneumoniae at 50 ug/ml after 24 hrs by agar well diffusion method; details: read-out: DIZ
# Klebsiella pneumoniae [15] = assay: Antibacterial activity against Klebsiella pneumoniae at 75 ug/ml after 24 hrs by agar well diffusion method; details: read-out: DIZ
# Klebsiella pneumoniae [16] = assay: Antibacterial activity against Klebsiella pneumoniae at 100 ug/ml after 24 hrs by agar well diffusion method; details: read-out: DIZ
# Staphylococcus aureus [17] = assay: Antibacterial activity against methicillin resistant Staphylococcus aureus MRSA090 at 25 ug/ml after 24 hrs by agar well diffusion method; details: MRSA090, 24 h, read-out: DIZ
# Staphylococcus aureus [18] = assay: Antibacterial activity against methicillin resistant Staphylococcus aureus MRSA090 at 50 ug/ml after 24 hrs by agar well diffusion method; details: MRSA090, 24 h, read-out: DIZ
# Staphylococcus aureus [19] = assay: Antibacterial activity against methicillin resistant Staphylococcus aureus MRSA090 at 75 ug/ml after 24 hrs by agar well diffusion method; details: MRSA090, 24 h, read-out: DIZ
# Staphylococcus aureus [20] = assay: Antibacterial activity against methicillin resistant Staphylococcus aureus MRSA090 at 100 ug/ml after 24 hrs by agar well diffusion method; details: MRSA090, 24 h, read-out: DIZ
# Aspergillus niger [21] = assay: Antifungal activity against Aspergillus niger at 25 ug/ml after 48 hrs by agar well diffusion method
# Aspergillus niger [22] = assay: Antifungal activity against Aspergillus niger at 50 ug/ml after 48 hrs by agar well diffusion method
# Aspergillus niger [23] = assay: Antifungal activity against Aspergillus niger at 75 ug/ml after 48 hrs by agar well diffusion method
# Aspergillus niger [24] = assay: Antifungal activity against Aspergillus niger at 100 ug/ml after 48 hrs by agar well diffusion method; details: read-out: DIZ
# Fusarium verticillioides [25] = assay: Antifungal activity against Fusarium moniliforme at 25 ug/ml after 48 hrs by agar well diffusion method
# Fusarium verticillioides [26] = assay: Antifungal activity against Fusarium moniliforme at 50 ug/ml after 48 hrs by agar well diffusion method
# Fusarium verticillioides [27] = assay: Antifungal activity against Fusarium moniliforme at 75 ug/ml after 48 hrs by agar well diffusion method
# Fusarium verticillioides [28] = assay: Antifungal activity against Fusarium moniliforme at 100 ug/ml after 48 hrs by agar well diffusion method
# Fusarium oxysporum [29] = assay: Antifungal activity against Fusarium oxysporum at 25 ug/ml after 48 hrs by agar well diffusion method; details: read-out: DIZ
# Fusarium oxysporum [30] = assay: Antifungal activity against Fusarium oxysporum at 50 ug/ml after 48 hrs by agar well diffusion method; details: read-out: DIZ
# Fusarium oxysporum [31] = assay: Antifungal activity against Fusarium oxysporum at 75 ug/ml after 48 hrs by agar well diffusion method; details: read-out: DIZ
# Fusarium oxysporum [32] = assay: Antifungal activity against Fusarium oxysporum at 100 ug/ml after 48 hrs by agar well diffusion method; details: read-out: DIZ
# Klebsiella pneumoniae [33] = assay: Antibacterial activity against Klebsiella pneumoniae incubated for overnight by microdilution method
# Staphylococcus aureus [34] = assay: Antibacterial activity against Staphylococcus aureus incubated for overnight by microdilution method
# Bacillus subtilis [35] = assay: Antibacterial activity against Bacillus subtilis incubated for overnight by microdilution method
# Escherichia coli [36] = assay: Antibacterial activity against Escherichia coli incubated for overnight by microdilution method
# Staphylococcus aureus [37] = assay: Antibacterial activity against methicillin resistant Staphylococcus aureus MRSA090 incubated for overnight by microdilution method
# Aspergillus niger [38] = assay: Antifungal activity against Aspergillus niger after 48 to 72 hrs by microdilution method
# Fusarium verticillioides [39] = assay: Antifungal activity against Fusarium moniliforme after 48 to 72 hrs by microdilution method
# Fusarium oxysporum [40] = assay: Antifungal activity against Fusarium oxysporum after 48 to 72 hrs by microdilution method
structure (smiles),measurement,setting,value
COc1ccc(/C=N/Nc2nc3cccc(C)c3s2)c(OC)c1,zone of inhibition at 25 µg/mL,Staphylococcus aureus [1],10 mm
same,zone of inhibition at 50 µg/mL,Staphylococcus aureus [2],15 mm
same,zone of inhibition at 75 µg/mL,Staphylococcus aureus [3],20 mm
same,zone of inhibition at 100 µg/mL,Staphylococcus aureus [4],28 mm
same,zone of inhibition at 25 µg/mL,Bacillus subtilis [5],13 mm
same,zone of inhibition at 50 µg/mL,Bacillus subtilis [6],19 mm
same,zone of inhibition at 75 µg/mL,Bacillus subtilis [7],25 mm
same,zone of inhibition at 100 µg/mL,Bacillus subtilis [8],29 mm
same,zone of inhibition at 25 µg/mL,Escherichia coli [9],13 mm
same,zone of inhibition at 50 µg/mL,Escherichia coli [10],18 mm
same,zone of inhibition at 75 µg/mL,Escherichia coli [11],24 mm
same,zone of inhibition at 100 µg/mL,Escherichia coli [12],23 mm
same,zone of inhibition at 25 µg/mL,Klebsiella pneumoniae [13],4 mm
same,zone of inhibition at 50 µg/mL,Klebsiella pneumoniae [14],9 mm
same,zone of inhibition at 75 µg/mL,Klebsiella pneumoniae [15],12 mm
same,zone of inhibition at 100 µg/mL,Klebsiella pneumoniae [16],15 mm
same,zone of inhibition at 25 µg/mL,Staphylococcus aureus [17],15 mm
same,zone of inhibition at 50 µg/mL,Staphylococcus aureus [18],18 mm
same,zone of inhibition at 75 µg/mL,Staphylococcus aureus [19],22 mm
same,zone of inhibition at 100 µg/mL,Staphylococcus aureus [20],27 mm
same,diameter of the inhibition zone (DIZ),Aspergillus niger [21],inactive
same,diameter of the inhibition zone (DIZ),Aspergillus niger [22],inactive
same,diameter of the inhibition zone (DIZ),Aspergillus niger [23],inactive
same,zone of inhibition at 100 µg/mL,Aspergillus niger [24],4 mm
same,diameter of the inhibition zone (DIZ),Fusarium verticillioides [25],inactive
same,diameter of the inhibition zone (DIZ),Fusarium verticillioides [26],inactive
same,diameter of the inhibition zone (DIZ),Fusarium verticillioides [27],inactive
same,diameter of the inhibition zone (DIZ),Fusarium verticillioides [28],inactive
same,zone of inhibition at 25 µg/mL,Fusarium oxysporum [29],7 mm
same,zone of inhibition at 50 µg/mL,Fusarium oxysporum [30],12 mm
same,zone of inhibition at 75 µg/mL,Fusarium oxysporum [31],14 mm
same,zone of inhibition at 100 µg/mL,Fusarium oxysporum [32],17 mm
same,MIC,Klebsiella pneumoniae [33],22 µg/mL
same,MIC,Staphylococcus aureus [34],26 µg/mL
same,MIC,Bacillus subtilis [35],24 µg/mL
same,MIC,Escherichia coli [36],25 µg/mL
same,MIC,Staphylococcus aureus [37],22 µg/mL
CC(=O)N1CCN(c2ccc(OCC3COC(Cn4ccnc4)(c4ccc(Cl)cc4Cl)O3)cc2)CC1 (configuration not stated) [KETOCONAZOLE],zone of inhibition at 25 µg/mL,Aspergillus niger [21]; read-out: DIZ,24 mm
same,zone of inhibition at 50 µg/mL,Aspergillus niger [22]; read-out: DIZ,28 mm
same,zone of inhibition at 75 µg/mL,Aspergillus niger [23]; read-out: DIZ,34 mm
same,zone of inhibition at 100 µg/mL,Aspergillus niger [24],37 mm
same,zone of inhibition at 25 µg/mL,Fusarium verticillioides [25]; read-out: DIZ,21 mm
same,zone of inhibition at 50 µg/mL,Fusarium verticillioides [26]; read-out: DIZ,25 mm
same,zone of inhibition at 75 µg/mL,Fusarium verticillioides [27]; read-out: DIZ,31 mm
same,zone of inhibition at 100 µg/mL,Fusarium verticillioides [28]; read-out: DIZ,34 mm
same,zone of inhibition at 25 µg/mL,Fusarium oxysporum [29],23 mm
same,zone of inhibition at 50 µg/mL,Fusarium oxysporum [30],22 mm
same,zone of inhibition at 75 µg/mL,Fusarium oxysporum [31],32 mm
same,zone of inhibition at 100 µg/mL,Fusarium oxysporum [32],38 mm
same,MIC,Aspergillus niger [38],28 µg/mL
same,MIC,Fusarium verticillioides [39],27 µg/mL
same,MIC,Fusarium oxysporum [40],24 µg/mL
